By IC50 is commonly meant the point on the concentration scale where inhibition reaches its midpoint.

Assay [1] deals with T1, VEGFR3 cytoplasmic domain (Homo sapiens, UniProt P35916).
T1 construct: VEGFR3 cytoplasmic domain (amino acids 798-1298) was purchased as N-terminal GST-fusion protein; GST (N); purchased
The assay can be described thus: VEGFR3 biochemical assay (AlphaScreen). The conditions noted are these: GST-VEGFR3 cytoplasmic domain, 500 μM ATP (modified form: His-fusion, 1 μM ATP). How it is done: Compounds of the invention may be tested for in vitro activity in the following assay: A biotin labelled peptide is used as substrate (amino acid sequence: Biotin-[…]NH2). VEGFR3 cytoplasmic domain (amino acids 798-1298) was purchased as N-terminal GST-fusion protein (“the enzyme”). The 15 μL assay reactions are run in Greiner brand white 384-well low volume plates. All reactions contained 10 mM HEPES pH 7.4, 10 mM MgCl2, 0.01% (v/v) Tween-20, 50 μM Na3VO4, 0.01% (w/v) albumin from chicken egg white, 1 mM Dithiothreitol, 111 nM peptide substrate, 500 μM ATP, and 3.8 ng/reaction enzyme, with the enzyme being omitted from negative control reactions. Compounds were added in a volume of […] from dilution series prepared in DMSO, positive and negative control reactions receiving the same volume DMSO without compound. The plates were sealed with adhesive seals and incubated for 90 minutes at 30 degree Celsius. The reactions were stopped with the detection reagents added at the same time as follows: Product formation was quantified as amplified luminescence between PerkinElmer AlphaScreen™ beads, using Streptavidin-coated donor and anti-phosphotyrosine (P-Tyr-100) acceptor beads. To each reaction, 5 μL containing 10 mM HEPES pH 7.4, 25 mM NaCl, 100 mM EDTA, 0.01% (v/v) Tween-20, and 6.25 μg/mL of each bead type were added. Plates were incubated for 6 hours before being read on a PerkinElmer EnVision™ plate reader in HTS Alphascreen™ mode. IC50 values were obtained by calculating percent inhibition (% I) for each reaction relative to controls on the same plate (% I=(I-CN)/(CP-CN) where CN/CP are the averages of the negative/positive reactions, respectively), then fitting the % I data vs. compound concentration [I] to % I=(A+((B−A)/(1+((C/[I])̂D)))) where A is the lower asymptote, B is the upper asymptote, C is the IC50 value, and D is the slope factor.
The above assay was also run in a modified form in some cases (indicated below with *). In these cases, VEGFR3 cytoplasmic domain (amino acids 818-1177, lacking 949-1002 of UniProt accession number P35916) was expressed and purified as N-terminal Hexa-His-fusion protein (“the enzyme”), rather than using the N-terminal GST-fusion protein. The assay conditions were the same as above but with 1 μM ATP and 8 ng/reaction of the enzyme.
In general terms: In Alpha technology, singlet oxygen from a donor bead excites a nearby acceptor bead.

For another assay, the target named is T2, VEGFR3 (Homo sapiens, UniProt P35916).
T2 construct: host or cells: HMVEC-dLyAD
The assay can be described thus: VEGFR3 Phospho ELISA assay in HMVEC-dLyAD cells, VEGFC stimulated. It counts as cell-based. The following applies: 1 hour compound, 250 ng/mL VEGFC 10 minutes. How it is done:
Adult human dermal lymphatic microvascular endothelial cells (HMVEC-dLyAD) (Cat#CC-2810, Lonza) were seeded into clear-bottom, TC treated 12 well plates (Cat #665180, Greiner Bio-One) in EGM-2MV (Cat#CC-3202, Lonza) at 180,000 cells/well (volume 1 mL), and the plates incubated at 37° C. and 5% CO2 for 6 hours. The media was replaced with EBM-2 (Cat #CC-3156, Lonza)+0.1% BSA (Cat#A8412, Sigma) and cells incubated for a further period (overnight at 37° C. and 5% CO2).
96 well Maxisorp immuno plates (Cat #439454, Nunc) were coated with 100 μL of Total VEGFR3 capture antibody (Part #841888, Human Total VEGFR3/FLT4 ELISA Kit, Cat #DYC3491, R&D Systems), or Phospho VEGFR3 Capture antibody (Part #841885, Human Phospho VEGFR3/FLT4 ELISA Kit, Cat#DYC2724, R&D Systems). The plates were covered and incubated at room temperature overnight.
The coating antibody was flicked out and the plates washed three times with Wash Buffer (Phosphate buffered saline (137 mM NaCl, […], […], […], pH 7.2-7.4), 0.05% Tween 20). 300 μL of blocking buffer (5% v/v Tween 20, 5% w/v sucrose in PBS) was then added to wells and plate incubated for 2 hours at room temperature. Blocking solution is flicked out and plates washed three times and tapped dry.
Compound dilution series were prepared in EBM-2 (Cat #CC-3156, Lonza)+0.1% BSA (Cat#A8412, Sigma) with constant 0.1% DMSO concentration. 439 μL of sample or vehicle control was added to the cell monolayers. Cells are treated for 1 hour at 37° C. and 5% CO2. 250 ng/mL Recombinant human VEGFC (Cat #2179-VC, R & D Systems) added to wells and plates incubated for an additional 10 minutes at 37° C. and 5% CO2.
The media and compounds were removed and the cell monolayer washed once in Dulbecco's Phosphate Buffered Saline (Cat #21600-044, Invitrogen). 130 μL of Lysis buffer added to wells and cell lysate harvested and transferred to tubes and stored on ice. Complete lysis buffer was prepared by adding 10 μL Protease Inhibitor Cocktail (Cat #P8340, Sigma-Aldrich), 10 μL PMSF (Phenylmethanesulfonyl fluoride, Cat #P7626, Sigma-Aldrich, prepared as 500 mM DMSO stock) per 1 mL of Phosphosafe™ Extraction Reagent (Cat #71296, Merck).
The harvested samples were then diluted 1:2 in IC Diluent #18 (5% Tween 20/PBS) and 100 μL transferred to the Total and Phospho VEGFR3 coated, blocked and washed 96 well plates and incubated for 2 hours at room temperature. The plates were then washed three times in wash buffer as described above and tapped dry.
For detection of Total VEGFR3100 μL of Detection antibody (Total VEGFR3 Detection Antibody Part#841888 in Total VEGFR3 kit) diluted in IC Diluent #1 (1% w/v BSA (Cat #A7906, Sigma-Aldrich)/PBS) was added to wells and the plate incubated for 2 hours at room temperature. The plate was then washed three times in wash buffer and tapped dry. 100 μL of streptavidin-HPR diluted in IC diluent #1 Streptavidin-HRP, Part #890803 in Total VEGFR3 kit) was added to wells and incubated at room temperature for 20 minutes followed by washing as described above 100 μL Substrate solution (3,3′,5,5′-Tetramethylbenzidine (TMB) Liquid Substrate System for ELISA, Cat #T0440, Sigma-Aldrich) was added and the plate incubated for 20 minutes in the dark at room temperature followed by the addition of 50 μL stop solution (2 M H2SO4).
Total VEGFR3 levels were quantified using a Multiskan Ascent plate reader and Ascent software fitted with 450 nm filter.
For detection of Phospho VEGFR3, 100 μL of Detection antibody (Anti-Phospho-Tyrosine-HRP Detection Antibody, Part #841403 in Phospho VEGFR3 kit) was diluted in IC Diluent #1 (1% w/v BSA/PBS), added to the wells and the plate incubated for 2 hours at room temperature. The plate was then washed three times in wash buffer as described above and tapped dry. […]
(In general: An ELISA detects its analyte on a solid surface through an enzyme-linked reagent.)

For a further assay, the target named is T3, P397Y-FAK (Homo sapiens, UniProt Q05397).
T3 construct: endogenous in cells; host or cells: MDA-231-LNA
In words: P397Y-FAK inhibition MSD platform cellular biomarker assay. It counts as cell-based. The conditions noted are these: MDA-231-LNA cells, 1 hour compound. How it is done: 96-well plates (cat#MA6000, Meso Scale Discovery) are coated with 30 μL/well of mouse monoclonal FAK antibody [63D5] (cat#ab72140, Abcam) pre-diluted in PBS to a concentration of 1 mg/mL. The plates are sealed with adhesive film and incubated for 16 hours at 4° C. The antibody is then flicked out of the plates and 150 μL of 3% [w/v] Blocker A (cat#R93AA-1, Meso Scale Discovery) is added. The plates are resealed with adhesive film and incubated at room temperature on a shaker set at medium speed for 2 hours. The plates are then washed three times with a solution containing 50 mM Tris-HCl pH 7.5, 0.15 M NaCl and 0.02% Tween-20, before cell lysate addition described below.
Cells are split 1:2 into T150 cell culture flasks 2 days prior to compound treatment. On the day prior to compound treatment, 200 μL media containing 20,000 cells is seeded into all wells of white, clear-bottom, TC treated, pclear, 96-well microtitre plates (cat#655098, Greiner Bio-One), and the plates are incubated at 37° C. and 5% CO2 for […]. 1 pUwell of compound is then added from dilution series prepared in DMSO. Negative control wells receive the same volume of DMSO without compounds, and positive control wells receive 2 μM of a control compound in the same volume of DMSO. Cells are treated for 1 hour at 37° C. and 5% CO2. The media/compounds are then flicked off and 55 pUwell of ice-cold complete lysis buffer is added. Complete lysis buffer is prepared by adding 1 tablet PhosSTOP complete phosphatase inhibitor (cat#04906837001, Roche) and 1 tablet Complete, Mini, EDTA-free, protease inhibitor (cat#04693159001, Roche) per 10 mL of incomplete lysis buffer (150 mM NaCl, 20 mM Tris-HCl pH 7.5, 1 mM EDTA, 1 mM EGTA, 1% Triton-X 100). Plates are incubated on ice for 30 minutes, with 30 seconds high speed plate shaking every 5 minutes. 40 μL/well of cell lysate is transferred to the coated, blocked and washed 96-well microtitre plates described above. The 96-well plates are sealed with adhesive film and incubated for 16 hours at 4° C. The plates are then washed three times with a solution containing 50 mM Tris-HCl pH 7.5, 0.15 M NaCl and 0.02% Tween-20 and tapped dry. 25 μL/well of detection solution (1% [w/v] Blocker A (cat#R93AA-1, Meso Scale Discovery) in 50 mM Tris-HCl pH 7.5, 0.15 M NaCl and 0.02% Tween-20, with 1:600 rabbit polyclonal FAK phospho Y397 antibody (cat#ab39967, Abcam), 1:1000 anti-rabbit sulfo-tag antibody (cat#R32AB-1 Meso Scale Discovery) and 1:40 reconstituted Blocker D-M (cat#D609-0100, Rockland Immunochemicals for Research)) is added, and the plates resealed with adhesive film and incubated for 1 hour at room temperature on a plate shaker set to medium speed. Plates are then washed three times with a solution containing 50 mM Tris-HCl pH 7.5, 0.15 M NaCl and 0.02% Tween-20 and tapped dry. 150 μL/well of Read Buffer T+Surfactant (cat#R92TC-1, Meso Scale Discovery) is then added, and pFAK-397 levels quantified using a Meso Scale Discovery SECTOR Imager 6000 instrument.

T3 sequence (Q05397 2-1052 limits assumed, stated change not applied): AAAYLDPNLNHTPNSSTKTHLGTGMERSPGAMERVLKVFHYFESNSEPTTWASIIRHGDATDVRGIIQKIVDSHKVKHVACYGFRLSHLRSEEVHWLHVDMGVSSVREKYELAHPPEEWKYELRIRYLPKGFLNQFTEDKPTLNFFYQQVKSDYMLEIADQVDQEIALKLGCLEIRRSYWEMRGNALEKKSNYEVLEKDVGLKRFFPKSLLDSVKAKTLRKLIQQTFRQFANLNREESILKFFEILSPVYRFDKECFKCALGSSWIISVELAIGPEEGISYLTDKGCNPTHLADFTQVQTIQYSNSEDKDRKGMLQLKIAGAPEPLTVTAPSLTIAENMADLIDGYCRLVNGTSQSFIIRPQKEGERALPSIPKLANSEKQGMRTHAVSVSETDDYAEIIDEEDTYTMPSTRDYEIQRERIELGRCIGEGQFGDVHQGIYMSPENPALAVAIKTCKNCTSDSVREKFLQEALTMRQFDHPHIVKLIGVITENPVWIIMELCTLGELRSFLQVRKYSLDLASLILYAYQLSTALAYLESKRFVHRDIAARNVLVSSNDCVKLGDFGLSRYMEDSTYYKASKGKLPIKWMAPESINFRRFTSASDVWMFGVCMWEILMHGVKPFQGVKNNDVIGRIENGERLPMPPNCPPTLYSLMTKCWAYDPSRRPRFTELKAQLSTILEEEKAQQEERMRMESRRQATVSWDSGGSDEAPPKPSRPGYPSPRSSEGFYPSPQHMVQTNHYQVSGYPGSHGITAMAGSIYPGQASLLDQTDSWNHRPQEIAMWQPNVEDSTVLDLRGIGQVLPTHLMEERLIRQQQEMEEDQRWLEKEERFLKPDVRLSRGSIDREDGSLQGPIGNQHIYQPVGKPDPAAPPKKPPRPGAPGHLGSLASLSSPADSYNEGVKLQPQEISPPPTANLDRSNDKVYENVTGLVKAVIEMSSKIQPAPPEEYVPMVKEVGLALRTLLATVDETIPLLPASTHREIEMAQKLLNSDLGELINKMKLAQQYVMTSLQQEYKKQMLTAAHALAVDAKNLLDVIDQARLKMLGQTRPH
T1 sequence (P35916 798-1298 isoform P35916-1): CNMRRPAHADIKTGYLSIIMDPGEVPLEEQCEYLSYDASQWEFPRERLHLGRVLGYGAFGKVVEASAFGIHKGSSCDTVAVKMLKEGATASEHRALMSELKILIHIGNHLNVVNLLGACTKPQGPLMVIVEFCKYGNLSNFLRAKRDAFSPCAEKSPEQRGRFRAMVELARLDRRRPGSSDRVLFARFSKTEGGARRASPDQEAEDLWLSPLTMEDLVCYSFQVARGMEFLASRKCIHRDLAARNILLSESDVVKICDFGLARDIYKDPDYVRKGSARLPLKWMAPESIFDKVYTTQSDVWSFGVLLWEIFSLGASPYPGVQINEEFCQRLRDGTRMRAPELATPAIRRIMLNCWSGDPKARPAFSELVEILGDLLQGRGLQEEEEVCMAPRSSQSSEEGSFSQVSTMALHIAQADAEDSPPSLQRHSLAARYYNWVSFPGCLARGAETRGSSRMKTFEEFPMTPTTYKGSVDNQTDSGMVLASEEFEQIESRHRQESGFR
T2 sequence (P35916 25-1363): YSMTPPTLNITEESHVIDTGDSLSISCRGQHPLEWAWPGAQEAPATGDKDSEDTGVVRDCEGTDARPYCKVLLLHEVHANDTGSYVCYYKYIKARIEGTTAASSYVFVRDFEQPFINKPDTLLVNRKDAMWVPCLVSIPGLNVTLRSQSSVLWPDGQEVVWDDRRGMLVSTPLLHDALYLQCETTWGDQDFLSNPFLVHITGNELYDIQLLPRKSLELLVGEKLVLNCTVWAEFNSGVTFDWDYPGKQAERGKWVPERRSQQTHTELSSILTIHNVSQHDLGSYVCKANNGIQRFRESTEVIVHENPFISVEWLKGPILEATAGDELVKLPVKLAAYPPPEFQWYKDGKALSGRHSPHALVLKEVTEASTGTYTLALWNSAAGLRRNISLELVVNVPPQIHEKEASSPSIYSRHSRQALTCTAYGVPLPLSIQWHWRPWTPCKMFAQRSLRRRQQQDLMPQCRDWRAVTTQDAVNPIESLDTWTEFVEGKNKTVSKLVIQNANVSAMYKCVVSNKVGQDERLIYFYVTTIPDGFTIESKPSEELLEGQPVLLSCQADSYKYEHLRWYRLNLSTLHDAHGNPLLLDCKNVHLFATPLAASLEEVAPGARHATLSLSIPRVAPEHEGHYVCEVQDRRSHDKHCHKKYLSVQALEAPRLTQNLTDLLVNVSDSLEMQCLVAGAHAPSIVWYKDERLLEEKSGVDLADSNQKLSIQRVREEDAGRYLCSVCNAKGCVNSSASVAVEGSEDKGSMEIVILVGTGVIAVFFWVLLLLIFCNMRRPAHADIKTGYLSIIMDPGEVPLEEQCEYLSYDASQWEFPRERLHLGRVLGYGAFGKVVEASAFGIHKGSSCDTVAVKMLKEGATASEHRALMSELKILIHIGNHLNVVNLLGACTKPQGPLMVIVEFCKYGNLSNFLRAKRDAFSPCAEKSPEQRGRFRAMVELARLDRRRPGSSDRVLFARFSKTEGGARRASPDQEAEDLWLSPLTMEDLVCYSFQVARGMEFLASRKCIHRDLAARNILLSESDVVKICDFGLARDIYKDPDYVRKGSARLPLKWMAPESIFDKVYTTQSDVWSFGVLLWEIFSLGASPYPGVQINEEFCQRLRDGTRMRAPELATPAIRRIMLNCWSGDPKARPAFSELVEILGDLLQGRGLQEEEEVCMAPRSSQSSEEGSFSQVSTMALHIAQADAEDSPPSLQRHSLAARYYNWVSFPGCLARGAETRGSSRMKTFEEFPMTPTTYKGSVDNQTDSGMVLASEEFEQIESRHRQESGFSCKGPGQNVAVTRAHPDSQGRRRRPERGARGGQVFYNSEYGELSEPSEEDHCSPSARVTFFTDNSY

As to `NC(=O)Cc1cc(F)ccc1CCc1nc(Nc2ccc(C3CCNCC3)cc2)ncc1C(F)(F)F` [Compound 9, 2-(5-fluoro-2-(2-(2-((4-(piperidin-4-yl)phenyl)amino)-5-(trifluoromethyl)pyrimidin-4-yl)ethyl)phenyl)acetamide], the IC50 in assay [1] stood at 68 nM; against VEGFR3 it was 379 nM.
The matching figures for `NC(=O)Cc1ccccc1CCc1nc(Nc2ccc(C3CCNCC3)nc2)ncc1C(F)(F)F` [Compound 13, 2-(2-(2-(2-((6-(piperidin-4-yl)pyridin-3-yl)amino)-5-(trifluoromethyl)pyrimidin-4-yl)ethyl)phenyl)acetamide]: 67 nM and 1030 nM.
As for `NC(=O)Cc1ccccc1CCc1nc(Nc2ccc(CNCCO)cc2)ncc1C(F)(F)F` [Compound 19, 2-(2-(2-(2-((4-(((2-hydroxyethyl)amino)methyl)phenyl)amino)-5-(trifluoromethyl)pyrimidin-4-yl)ethyl)phenyl)acetamide], the IC50 at P397Y-FAK turned out to be 7 nM; in assay [1] it was 70 nM.
The corresponding values for `Cc1ccc(CC(N)=O)c(CCc2nc(Nc3ccc(C4CCNCC4)cc3)ncc2C(F)(F)F)c1` [Compound 21, 2-(4-methyl-2-(2-(2-((4-(piperidin-4-yl)phenyl)amino)-5-(trifluoromethyl)pyrimidin-4-yl)ethyl)phenyl)acetamide] are 119 nM and 44 nM.
The matching figures for `NC(=O)Cc1c(CCc2nc(Nc3ccc(C4CCNCC4)cc3)ncc2C(F)(F)F)cccc1C(F)(F)F` [Compound 22, 2-(2-(2-(2-((4-(piperidin-4-yl)phenyl)amino)-5-(trifluoromethyl)pyrimidin-4-yl)ethyl)-6-(trifluoromethyl)phenyl)acetamide]: 944 nM and 101 nM.
